Assay results: US20040023802A1, “Increasing plant yield and/or vigor by seed treatment with a neonicotinoid compound” (Monsanto Technology, L.L.C., priority 2002, published 2004)

Assays:
Assay type in all cases: in vivo
[1] = tested on: commercial corn hybrids; assay: Hybrid seed production (breeding station) field trial: final stand count and plot yield of corn from imidacloprid-treated seed; details: for Stand count, Imidacloprid treated / Corn yield, Imidacloprid treated: 0.165 mg/kernel + fungicide; for Stand count, Imidacloprid treated: V5 stage; for Corn yield, Imidacloprid treated: at maturity, 15% moisture; for Corn yield, Difference / Stand count, Difference: imidacloprid treated vs fungicide-only control; for Actual Yield Over Expected: yield increase vs that expected from stand improvement (about 1% per 1,000 plants/ac); for Actual Yield Over 2× of Expected: yield increase vs two-times that predicted from stand improvement
[2] = tested on: corn hybrids; assay: Field strip trials of corn yield under different tillage regimes: soil insecticide alone or plus Gaucho seed treatment
Protocol: Seed of three corn hybrids were treated with imidacloprid in the manner described in Example 3. Seed were planted using standard planting equipment in field experiments across the U.S. corn belt. All experiments were conducted as strip trials, under a variety of tillage regimes, and all trials received standard weed control and cultural practices common to commercial corn production. Plot yield was collected using standard mechanical harvesting equipment.
Soil insecticides were applied in the manner described in Example 2. Considerable increase in corn yield was also observed when corn seed treated with imidacloprid were planted in soils treated with soil-applied insecticide. The increase in yield was observed under all tillage conditions and for all the hybrids tested. Table 7 compares the yield from untreated corn seeds and corn seeds treated with imidacloprid when planted on soil treated with soil-applied insecticide. […] Soil-applied insecticides are known to be an effective method for controlling secondary insects, so the increase in corn yield was surprising.
No-Till-Tillage system refers to situations where no tillage methods are applied to the soil prior to or at planting.
Conservation/Minimum tillage refers to reduced tillage practices allowing at least 30% of soil surface to remain covered with crop residue.
Conventional Tillage refers to tillage practices where less than 30% of soil surface is covered with previous crop residue.
Such practices may include moldboard plowing, disking, or multiple field cultivation passes prior to or at planting of crop. Strip and Ridge-Till, although usually grouped in conservation tillage because of beneficial effects on soil and water retention, are grouped in conventional tillage here because the tilled zones in which the crop is planted provide an environment more similar to true conventional tillage.

[3] = tested on: isoline (non-transgenic) corn hybrids RX670 and RX601; assay: Field tests of corn yield of isoline hybrids at low pest pressure, with and without imidacloprid seed treatment; details: 60 gm per 100 kg of seed; four location/hybrid cases
Protocol: (§1) Corn hybrids with and without transgenic events expressing insecticidal proteins were evaluated for field efficacy. The hybrids that were evaluated were RX670 and RX601, each as an isoline (having no transgenic events) and each having a transgenic event expressing the Cry3Bb protein having activity against Diabrotica spp. (corn rootworm)—designated as MON853, or a transgenic event expressing the Cry3Bb protein having activity against corn rootworm—designated as MON863, or a combination of MON853 and a transgenic event expressing the Cry1A protein having activity against European corn borer—designated as MON810, or a combination of MON863 and MON810. Accordingly, an isoline and four transgenic forms were tested for each hybrid. Each type of seed was tested with and without seed treatment with 60 gm of imidacloprid per 100 kg of seed, applied in a Niklas seed treater. The isoline seeds were also tested with and without the use of conventional soil-applied insecticides, which were applied as described in Example 3.

[4] = tested on: corn hybrids RX670 and RX601 having transgenic events MON853, MON863, MON810; assay: Field trials of corn yield of transgenic seed at low pest pressure, with and without imidacloprid seed treatment; details: 60 gm per 100 kg of seed; all trials; relative absence of insect pressure
Protocol: as §1

[5] = tested on: corn rootworm; secondary insect pests of corn; assay: Insect protection of corn by imidacloprid seed treatment at 0.165 mg/kernel (stated as previously shown); details: 0.165 mg imidacloprid/kernel
[6] = hybrid B = DKC46-26, 10 locations
[7] = hybrid D = DKC51-88, 10 locations
[8] = hybrid F = LH244XLH295, 10 locations
[9] = hybrid H = HC33XLH277, 14 locations
[10] = hybrid I = DKC57-38, 14 locations
[11] = vs fungicide-treated control, 12 hybrids

O=[N+]([O-])NC1=NCCN1Cc1ccc(Cl)nc1 [Imidacloprid, imidacloprid]
Stand count, Imidacloprid treated ([1]; hybrid A = DK440, 10 locations): 31920 plts/ac
Corn yield, Imidacloprid treated ([1]; hybrid A = DK440, 10 locations): 163.5 bu/ac
Stand count, Imidacloprid treated [1, 6]: 32061 plts/ac
Corn yield, Imidacloprid treated [1, 6]: 170.8 bu/ac
Stand count, Imidacloprid treated ([1]; hybrid C = DK493, 10 locations): 31217 plts/ac
Corn yield, Imidacloprid treated ([1]; hybrid C = DK493, 10 locations): 159.6 bu/ac
Stand count, Imidacloprid treated [1, 7]: 31828 plts/ac
Corn yield, Imidacloprid treated [1, 7]: 169.4 bu/ac
Stand count, Imidacloprid treated ([1]; hybrid E = DK537, 10 locations): 32011 plts/ac
Corn yield, Imidacloprid treated ([1]; hybrid E = DK537, 10 locations): 171.2 bu/ac
Stand count, Imidacloprid treated [1, 8]: 30786 plts/ac
Corn yield, Imidacloprid treated [1, 8]: 173.1 bu/ac
Stand count, Imidacloprid treated ([1]; hybrid G = DK567, 14 locations): 28766 plts/ac
Corn yield, Imidacloprid treated ([1]; hybrid G = DK567, 14 locations): 167.5 bu/ac
Stand count, Imidacloprid treated [1, 9]: 28004 plts/ac
Corn yield, Imidacloprid treated [1, 9]: 164.6 bu/ac
Stand count, Imidacloprid treated [1, 10]: 28460 plts/ac
Corn yield, Imidacloprid treated [1, 10]: 172.3 bu/ac
Stand count, Imidacloprid treated ([1]; hybrid J = DK585, 14 locations): 28273 plts/ac
Corn yield, Imidacloprid treated ([1]; hybrid J = DK585, 14 locations): 179.5 bu/ac
Stand count, Imidacloprid treated ([1]; hybrid K = DK611, 14 locations): 28984 plts/ac
Corn yield, Imidacloprid treated ([1]; hybrid K = DK611, 14 locations): 171.3 bu/ac
Stand count, Imidacloprid treated ([1]; hybrid L = RX708, 14 locations): 28986 plts/ac
Corn yield, Imidacloprid treated ([1]; hybrid L = RX708, 14 locations): 180.7 bu/ac
Corn yield, Difference ([1]; hybrid A = DK440, 10 locations): 2.0 bu/ac
Stand count, Difference ([1]; hybrid A = DK440, 10 locations): 843.8 plts/ac
Corn yield, Difference [1, 6]: 4.1 bu/ac
Stand count, Difference [1, 6]: 439.0 plts/ac
Corn yield, Difference ([1]; hybrid C = DK493, 10 locations): 5.8 bu/ac
Stand count, Difference ([1]; hybrid C = DK493, 10 locations): 749.5 plts/ac
Corn yield, Difference [1, 7]: −0.7 bu/ac
Stand count, Difference [1, 7]: 946.8 plts/ac
Corn yield, Difference ([1]; hybrid E = DK537, 10 locations): 1.0 bu/ac
Stand count, Difference ([1]; hybrid E = DK537, 10 locations): 620.0 plts/ac
Corn yield, Difference [1, 8]: 4.7 bu/ac
Stand count, Difference [1, 8]: 1162.3 plts/ac
Corn yield, Difference ([1]; hybrid G = DK567, 14 locations): 3.5 bu/ac
Stand count, Difference ([1]; hybrid G = DK567, 14 locations): 1189.2 plts/ac
Corn yield, Difference [1, 9]: 4.8 bu/ac
Stand count, Difference [1, 9]: 39.6 plts/ac
Corn yield, Difference [1, 10]: 9.2 bu/ac
Stand count, Difference [1, 10]: 1822.2 plts/ac
Corn yield, Difference ([1]; hybrid J = DK585, 14 locations): 3.7 bu/ac
Stand count, Difference ([1]; hybrid J = DK585, 14 locations): 429.3 plts/ac
Corn yield, Difference ([1]; hybrid K = DK611, 14 locations): 0.1 bu/ac
Stand count, Difference ([1]; hybrid K = DK611, 14 locations): 1022.8 plts/ac
Corn yield, Difference ([1]; hybrid L = RX708, 14 locations): 6.9 bu/ac
Stand count, Difference ([1]; hybrid L = RX708, 14 locations): 803.7 plts/ac
increase or decrease in corn yield vs untreated seeds (FIG. 2 by hybrid, FIG. 3 by location) ([1]; twelve hybrids, twenty four locations): consistent and commercially important increases in corn yield
hybrid/seed treatment combinations with yield increase more than expected on the basis of stand improvement alone [1, 11]: 9 out of 12
hybrid/seed treatment combinations with yield increase over two-times that predicted on the basis of stand improvement [1, 11]: 7 out of 12
Actual Yield Over Expected ([1]; hybrid A = DK440): Yes
Actual Yield Over Expected ([1]; hybrid B = DKC46-26): Yes
Actual Yield Over Expected ([1]; hybrid C = DK493): Yes
Actual Yield Over Expected ([1]; hybrid D = DKC51-88): No
Actual Yield Over Expected ([1]; hybrid E = DK537): No
Actual Yield Over Expected ([1]; hybrid F = LH244XLH295): Yes
Actual Yield Over Expected ([1]; hybrid G = DK567): Yes
Actual Yield Over Expected ([1]; hybrid H = HC33XLH277): Yes
Actual Yield Over Expected ([1]; hybrid I = DKC57-38): Yes
Actual Yield Over Expected ([1]; hybrid J = DK585): Yes
Actual Yield Over Expected ([1]; hybrid K = DK611): No
Actual Yield Over Expected ([1]; hybrid L = RX708): Yes
Actual Yield Over 2× of Expected ([1]; hybrid A = DK440): No
Actual Yield Over 2× of Expected ([1]; hybrid B = DKC46-26): Yes
Actual Yield Over 2× of Expected ([1]; hybrid C = DK493): Yes
Actual Yield Over 2× of Expected ([1]; hybrid D = DKC51-88): No
Actual Yield Over 2× of Expected ([1]; hybrid E = DK537): No
Actual Yield Over 2× of Expected ([1]; hybrid F = LH244XLH295): Yes
Actual Yield Over 2× of Expected ([1]; hybrid G = DK567): No
Actual Yield Over 2× of Expected ([1]; hybrid H = HC33XLH277): Yes
Actual Yield Over 2× of Expected ([1]; hybrid I = DKC57-38): Yes
Actual Yield Over 2× of Expected ([1]; hybrid J = DK585): Yes
Actual Yield Over 2× of Expected ([1]; hybrid K = DK611): No
Actual Yield Over 2× of Expected ([1]; hybrid L = RX708): Yes
increase in corn yield ([2]; conservation/minimum tillage): 1.6%
increase in corn yield ([2]; convention tillage): 1.7%
increase in corn yield ([2]; no-till cultivation): 6.3%
corn yield vs seeds without imidacloprid treatment ([2]; planted on soil treated with soil-applied insecticide, all tillage conditions and hybrids): considerably higher yield
effect of imidacloprid treatment on yield for isoline corn [3]: increased by imidacloprid treatment in one-half of the cases tested
corn yield of transgenic seed treated with imidacloprid vs isolines and untreated transgenic strains [4]: higher than the isolines, and also higher than the untreated transgenic strains
protection of corn seedlings against stand reducing and growth limiting secondary insect pests [5]: effective
reduction of root injury by corn rootworm ([5]; locations with economically damaging levels of corn rootworm): not significantly reduce root injury
